Results published in US4771068A, “Mitomycin derivatives having anti-tumor and antibacterial utility” (priority 1985, dated 1988).
Converted amounts (≈) assume the structure as drawn.

Experiments:
[1] = system: Bacillus subtilis 10707; assay: Antibacterial activity (minimum growth inhibitory concentration), agar dilution method; type: cell-based; settings: Bacillus subtilis 10707, pH 7.0, agar dilution method; read-out: minimum growth inhibitory concentration, BS
Protocol: (§1) Antibacterial activities of Compounds (I) against various bacteria are shown by the minimum growth inhibitory concentration (μg/ml) in Table 3. The minimum growth inhibitory concentration was measured at pH 7.0 according to the agar dilution method. In the table, bacteria are indicated by the following letters.
BS: Bacillus subtilis 10707

[2] = system: Staphylococcus aureus ATCC 6538P; assay: as above; type: cell-based; settings: ATCC6538P, pH 7.0, agar dilution method, read-out: minimum growth inhibitory concentration, SA
Protocol: as §1
SA: Staphylococcus aureus ATCC 6538P

[3] = system: Sarcoma 180 solid tumour; assay: animal or person; settings: for CIc: CI of test compound divided by CI of mitomycin C as control in the same condition; for ED50: Mus musculus, Sarcoma-180, iv, 168 h; for CI (LD50/ED50): chemotherapeutic index
Text: CIc : Value given by division of CI of each test compound by CI of
determination of antitumour activity of the test compound. A CIc
5×10^6 cells of Sarcoma 180 solid tumour were intraperitoneally implanted into ddY mice. 7 days later, ascites cells were sampled. The cells were washed once with a sterilized physiological sodium chloride solution and were used to prepare a cell suspension containing 5×10^7 cells per ml with a sterilized physiological sodium chloride solution. On each occasion, 0.1 ml of the cell suspension was subcutaneously implanted into the right axilla of a male mouse (ddY strain; body weight 20±2 g).
The anti-tumour activity was determined in the following manner. 7 days after the implantation, the major axis (a) and the minor axis (b) of the tumour were measured to calculate a value of "a×b^2 /2" which corresponds to the volume of the tumour. The anti-tumour activity was expressed by the ratio (T/C) of the volume (T) of the tumours of the group of animals administered with the test compound to the corresponding volume (C) of tumours of the untreated animals.
On graph paper, T/C was indicated by an arithmetic scale on the longitudinal axis and the administered amount of the test compound was indicated by a logarithmic scale on the lateral axis.

[4] = system: Proteus vulgalis ATCC 6897; assay: Antibacterial activity (minimum growth inhibitory concentration), agar dilution method; type: cell-based; settings: pH 7, read-out: minimum growth inhibitory concentration, PV
Protocol: as §1
PV: Proteus vulgalis ATCC 6897

[5] = system: peripheral leucocytes; assay: Effect on the peripheral leucocytes number; type: in vivo, mouse (ddY strain); settings: minimum dose reducing peripheral leucocytes number to 4000/mm^3; tumour-carrying ddY mice, intraperitoneal, 4 days after administration
Protocol: WBC4000 : Minimum dose of a test compound which reduces the
peripheral leucocytes number to 4000/mm^3.
Sarcoma 180 solid tumour cells (5×10^6) were subcutaneously implanted into the right axilla of each mouse (body weight 20±2 g) of a group consisting of 5 male mice (ddY strain). 24 hours after implantation,a test compound was intraperitoneally administered to each animal. 4 days after the administration, blood (each 0.02 ml) was collected from the suborbital plexus vein of each tumour-carrying animal. The collected sample of blood was dispersed in 9.98 ml of Cell-Kit Seven solution. One drop of saponin solution was added to the sample to dissolve erythrocytes and then a microcell counter was used to count the number of leucocytes. […] The relationship between the number of peripheral leucocytes and the dose of the test compound was plotted and the dose (i.e., WBC4000) corresponding to 4000 peripheral leucocytes/mm^3 (about half the number of leucocytes of normal mice) was obtained.

[6] = Solubility in water; type: physicochemical; settings: aqueous buffer; 0.03M phosphate buffer (pH 7.0), 22° C., 15 minutes
Protocol: 1 mg of a test compound was added to 100 μl of 0.03M phosphate buffer (pH 7.0). The mixture was stirred at 22° C. for 15 minutes and filtered through Ekicrodisc 3 (disposable filter unit, Gelman Sciences Japan Co.) to remove insoluble matters. The filtrate is a saturated solution of the test compound. Predetermined amount of the saturated solution was injected into a high performance liquid chromatograph [column: YMC-A212 (C8) .phi.6 mm, 150 mm, eluting solvent: 0.01M-ammonium acetate/methanol, wave length for detection: 254 nm] and peak area of the chromatogram was calculated. Separately, a solution of the test compound in methanoL having a certain concentration of the compound was similarly subjected to the chromatography to make the calibration curve. The solubility of the test compound was calculated by the calibration curve.

[7] = Acute toxicity; settings: mouse, in vivo, ip; ddY mice, intraperitoneally once, 14 days observation
Protocol: Each animal of the test group consisting of 5 ddY mice was administered intraperitoneally once with a test compound. […] The LD50 was determined by Beherns Kaerber's method.

[8] = system: Klebsiella pneumoniae ATCC 10031; assay: Antibacterial activity (minimum growth inhibitory concentration), agar dilution method; type: cell-based; settings: ATCC10031; Klebsiella pneumoniae ATCC 10031, pH 7.0, agar dilution method; read-out: minimum growth inhibitory concentration, KP
Protocol: as §1
KP: Klebsiella pneumoniae ATCC 10031

[9] = system: Streptococcus faecalis ATCC 10541; assay: as above; type: cell-based; settings: Enterococcus faecalis, ATCC10541; Streptococcus faecalis ATCC 10541, pH 7.0, agar dilution method; read-out: minimum growth inhibitory concentration, SF
Protocol: as §1
SF: Streptococcus faecalis ATCC 10541

| SMILES | MIC [1] | MIC [2] | CIc [3] | ED50 [3] | CI (LD50/ED50) [3] | MIC [4] | WBC4000 [5] | solubility at 0.25 h [6] | LD50 at 336 h [7] | MIC [8] | MIC [9] |
| --- | --- | --- | --- | --- | --- | --- | --- | --- | --- | --- | --- |
| CO[C@@]12[C@H](COC(N)=O)C3=C(C(=O)C(C)=C(NCCSC(C)=O)C3=O)N1C[C@@H]1N[C@@H]12 [Compound 1, 7-N-[(2-acetylthio)ethyl]mitomycin] | < 0.02 µg/mL | < 0.02 µg/mL | 1.2 | 2.3 mg/kg | 2.4 | 1.3 µg/mL (≈ 2.98 µM) | 9.5 mg/kg | 5600 µg/mL (≈ 12800 µM) | 5.6 mg/kg | 0.078 µg/mL (≈ 0.179 µM) | < 0.02 µg/mL |
| CC(=O)SCCNC1=C(C)C(=O)C2=C(C1=O)[C@H](COC(N)=O)[C@@]1(O)[C@@H]3[C@H](CN21)N3C (some centres unmarked) [Compound 2] | 0.78 µg/mL (≈ 1.79 µM) | 3.1 µg/mL (≈ 7.1 µM) | 1.9 | 5.6 mg/kg | 4.7 | 25 µg/mL (≈ 57.3 µM) | 14.1 mg/kg | 8900 µg/mL (≈ 20400 µM) | 26.3 mg/kg | 6.3 µg/mL (≈ 14.4 µM) | 3.1 µg/mL (≈ 7.1 µM) |
| CO[C@@]12[C@H](COC(N)=O)C3=C(C(=O)C(C)=C(NCCSC(C)=O)C3=O)N1C[C@H]1[C@@H]2N1C (some centres unmarked) [Compound 3] | < 0.02 µg/mL | 0.078 µg/mL (≈ 0.173 µM) | 0.88 | 5.6 mg/kg | 1.7 | 20 µg/mL (≈ 44.4 µM) | 11.0 mg/kg | 3800 µg/mL (≈ 8430 µM) | 9.4 mg/kg | 1.3 µg/mL (≈ 2.89 µM) | 0.039 µg/mL (≈ 0.0866 µM) |
| C=C1C2=C(C(=O)C(C)=C(NCCSC(C)=O)C2=O)N2C[C@H]3[C@H](N3C)[C@]12O (some centres unmarked) [Compound 4] | 6.3 µg/mL (≈ 16.8 µM) | 50 µg/mL (≈ 133 µM) | 1.6 | 14.9 mg/kg | 3.0 | 100 µg/mL (≈ 266 µM) | 27.1 mg/kg | 1900 µg/mL (≈ 5060 µM) | 45 mg/kg | 25 µg/mL (≈ 66.6 µM) | > 100 µg/mL |
| CO[C@@]12[C@H](COC(N)=O)C3=C(C(=O)C(C)=C(NCCCSC(C)=O)C3=O)N1C[C@@H]1N[C@@H]12 [Compound 7] | < 0.02 µg/mL | 0.039 µg/mL (≈ 0.0866 µM) | 0.88 | 5.2 mg/kg | 2.2 | 2.5 µg/mL (≈ 5.55 µM) | > 25 mg/kg | 3500 µg/mL (≈ 7770 µM) | 11.3 mg/kg | 0.31 µg/mL (≈ 0.688 µM) | < 0.02 µg/mL |
| CC(=O)SCCCNC1=C(C)C(=O)C2=C(C1=O)[C@H](COC(N)=O)[C@@]1(O)[C@@H]3[C@H](CN21)N3C (some centres unmarked) [Compound 8, 7-N-(3-acetylthiopropyl)mitomycin D] | 13 µg/mL (≈ 28.9 µM) | > 100 µg/mL |  |  |  |  |  | 9600 µg/mL (≈ 21300 µM) |  |  | 50 µg/mL (≈ 111 µM) |
| CO[C@@]12[C@H](COC(N)=O)C3=C(C(=O)C(C)=C(NCCCCSC(C)=O)C3=O)N1C[C@@H]1N[C@@H]12 [Compound 9] | < 0.02 µg/mL | 0.039 µg/mL (≈ 0.084 µM) | 1.6 | 21.7 mg/kg | 4.1 | 5 µg/mL (≈ 10.8 µM) | 65.2 mg/kg | 2000 µg/mL (≈ 4310 µM) | 90 mg/kg | 0.31 µg/mL (≈ 0.667 µM) | < 0.02 µg/mL |
| CO[C@@]12[C@H](COC(N)=O)C3=C(C(=O)C(C)=C(NCCCCCSC(C)=O)C3=O)N1C[C@@H]1N[C@@H]12 [Compound 10] | 0.078 µg/mL (≈ 0.163 µM) | 0.078 µg/mL (≈ 0.163 µM) | > 1.1 | 37.5 mg/kg | > 2.0 | 5 µg/mL (≈ 10.4 µM) | > 75 mg/kg | 1000 µg/mL (≈ 2090 µM) | > 75 mg/kg | 1.3 µg/mL (≈ 2.72 µM) | 0.039 µg/mL (≈ 0.0815 µM) |
| CO[C@@]12[C@H](COC(N)=O)C3=C(C(=O)C(C)=C(NCCCCCCSC(C)=O)C3=O)N1C[C@@H]1N[C@@H]12 [Compound 11] | 0.16 µg/mL (≈ 0.325 µM) | 0.16 µg/mL (≈ 0.325 µM) | 3.9 | 27 mg/kg | > 7.4 | 2.5 µg/mL (≈ 5.08 µM) | 31.3 mg/kg | 210 µg/mL (≈ 426 µM) | > 200 mg/kg | 1.3 µg/mL (≈ 2.64 µM) | 0.16 µg/mL (≈ 0.325 µM) |
| CO[C@@]12[C@H](COC(N)=O)C3=C(C(=O)C(C)=C(NCCSC(=O)c4ccccc4)C3=O)N1C[C@@H]1N[C@@H]12 [Compound 13] | < 0.02 µg/mL | < 0.02 µg/mL | 0.91 | 4.1 mg/kg | 1.5 | 5 µg/mL (≈ 10 µM) | > 5 mg/kg | 73 µg/mL (≈ 146 µM) | 6 mg/kg | 1.3 µg/mL (≈ 2.61 µM) | 0.039 µg/mL (≈ 0.0782 µM) |
| CO[C@@]12[C@H](COC(N)=O)C3=C(C(=O)C(C)=C(NCCSC(=O)c4ccc(Br)cc4)C3=O)N1C[C@@H]1N[C@@H]12 [Compound 21] | < 0.02 µg/mL | < 0.02 µg/mL | 1.9 | 2 mg/kg | 4.7 | 5 µg/mL (≈ 8.66 µM) | 11.5 mg/kg | 4.7 µg/mL (≈ 8.14 µM) | 9.4 mg/kg | 1.3 µg/mL (≈ 2.25 µM) | 0.039 µg/mL (≈ 0.0675 µM) |
| CO[C@@]12[C@H](COC(N)=O)C3=C(C(=O)C(C)=C(NCCSC(C)=S)C3=O)N1C[C@@H]1N[C@@H]12 [Compound 26] | < 0.02 µg/mL | < 0.02 µg/mL | 1.6 | 1.2 mg/kg | 5.5 | 0.63 µg/mL (≈ 1.39 µM) | 7.6 mg/kg | 260 µg/mL (≈ 575 µM) | 6.6 mg/kg | 0.078 µg/mL (≈ 0.172 µM) | < 0.02 µg/mL |
